The supplement of paper PMC11061612

Tests used:
[1] = system: ASH-3 (Thyroid Gland Carcinoma); assay: Bliss excess, mean over the matrix (fraction); higher = more synergy
Outline: (§1)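 After 24 hours at 37°C and 5% CO2 in 1536-well plates, cells in DMEM/F12 or RPMI plus 10% FBS received two-drug dose matrices for 72 hours. Viability came from CellTiter-Glo 2.0 luminescence and was scaled as inhibition, anchored at 0 by vehicle wells and at 1 by blank wells. Combination Emax is taken as the second-highest inhibition in the matrix, and Bliss excess as the observed combination effect less EA + EB − EA·EB, with EA and EB the single-agent effects.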

[2] = system: BV-173 (Chronic Myelogenous Leukemia); assay: as above
Outline: as §1

EW-18 (Ewing's Sarcoma) = assay: as above
Outline: as §1

[3] = system: H-EMC-SS (Chondrosarcoma); assay: as above
Outline: as §1

[4] = system: JHH-7 (Hepatocellular Carcinoma); assay: as above
Outline: as §1

[5] = system: MFE-319 (Endometrial Carcinoma); assay: as above
Outline: as §1

NB7 (Neuroblastoma) = assay: as above
Outline: as §1

[6] = system: NCI-H322M (Lung Adenocarcinoma); assay: as above
Outline: as §1

[7] = system: OCUB-M (Breast Carcinoma); assay: as above
Outline: as §1

[8] = system: SCC-9 (Oral Cavity Carcinoma); assay: as above
Outline: as §1

[9] = system: TGBC11TKB (Gastric Carcinoma); assay: as above
Outline: as §1

[10] = system: VMRC-LCD (Lung Adenocarcinoma); assay: as above
Outline: as §1

[11] = system: ASH-3 (Thyroid Gland Carcinoma); assay: combination Emax (second highest fraction inhibited in the dose matrix, 72 h); higher = more inhibition; extreme values may be limits of the assay
Outline: as §1

[12] = system: KYSE-150 (Esophageal Squamous Cell Carcinoma); assay: as above
Outline: as §1

[13] = system: LC4-1 (B-Lymphoblastic Leukemia); assay: as above
Outline: as §1

[14] = system: NCI-H513 (Other Solid Carcinomas); assay: as above
Outline: as §1

[15] = system: NCI-N87 (Gastric Carcinoma); assay: as above
Outline: as §1

[16] = system: OCUM-1 (Gastric Carcinoma); assay: as above
Outline: as §1
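Throughout, for Bliss excess, mean over the matrix: after 72 h of two-drug dosing.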

Compound	Bliss excess [1]	Bliss excess [2]	Bliss excess (EW-18 (Ewing's Sarcoma))	Bliss excess [3]	Bliss excess [4]	Bliss excess [5]	Bliss excess (NB7 (Neuroblastoma))	Bliss excess [6]	Bliss excess [7]	Bliss excess [8]	Bliss excess [9]	Bliss excess [10]	combination Emax [11]	combination Emax [12]	combination Emax [13]	combination Emax [14]	combination Emax [15]	combination Emax [16]
COc1cccc2c1C(=O)c1c(O)c3c(c(O)c1C2=O)C[C@@](O)(C(=O)CO)C[C@@H]3O[C@H]1C[C@H](N)[C@H](O)[C@H](C)O1 [Doxorubicin] + Cc1cc2ncnn2cc1Nc1ncc2c(n1)n(C1CCOCC1)c(=O)n2C [AZD7648] (first compound max 1 µM, 7x7, partner max 10 µM)	0.0829	0.0953	0.0402	-0.0179	0.0271	0.0152	0.0742	0.0751	0.0696	-0.0027	-0.0146	0.0256	0.912	0.958	1	0.527	0.726	0.596
COc1cccc(OCCCN)c1-c1cc(Nc2cnc(C#N)cn2)n[nH]1 [Prexasertib] + Cc1cc2ncnn2cc1Nc1ncc2c(n1)n(C1CCOCC1)c(=O)n2C [AZD7648] (first compound max 1 µM, 7x7, partner max 10 µM)	0.0598	-0.0218	-0.0679	-0.021	-0.0143	-0.0064	-0.0195	-0.0083	-0.0611	0.0092	-0.0148	-0.0323	0.648	0.513	0.97	0.36	0.776	0.803
Cc1cc2ncnn2cc1Nc1ncc2c(n1)n(C1CCOCC1)c(=O)n2C [AZD7648] + C=CCn1c(=O)c2cnc(Nc3ccc(N4CCN(C)CC4)cc3)nc2n1-c1cccc(C(C)(C)O)n1 [AZD1775] (first compound max 10 µM, partner max 1 µM)	-0.0006	0.0237	-0.0322	-0.028	-0.0337	-0.0055	-0.011	-0.0215	0.0389	0.0332	-0.0551	-0.0057	0.324	0.643	0.898	0.431	0.731	0.384
C[C@@H]1COCCN1c1cc(C2([S@](C)(=N)=O)CC2)nc(-c2ccnc3[nH]ccc23)n1 [AZD6738] + O=C(c1cc(Cc2n[nH]c(=O)c3ccccc23)ccc1F)N1CCN(C(=O)C2CC2)CC1 [Olaparib] (first compound max 10 µM, 7x7, partner max 10 µM)	0.0361	-0.0099	0.0292	-0.0558	0.0012	-0.0089	0.0202	-0.0491	0.0347	0.0422	-0.0236	-0.0231	0.652	0.567	0.952	0.362	0.693	0.675
CCc1c2c(nc3ccc(O)cc13)-c1cc3c(c(=O)n1C2)COC(=O)[C@]3(O)CC [SN-38] + CN(C)CCCOc1ccc(-c2ccc3ncc4c(c3c2)n(C2CCOCC2)c(=O)n4C)cn1 [AZD0156] (first compound max 0.3 µM, 7x7, partner max 1 µM)	0.0121	-0.0256	-0.0607	-0.0092	0.0084	-0.0108	-0.0027	0.15	0.126	0.0484	0.0074	-0.0338	0.844	0.732	0.932	0.544	0.697	0.635
C=CCn1c(=O)c2cnc(Nc3ccc(N4CCN(C)CC4)cc3)nc2n1-c1cccc(C(C)(C)O)n1 [AZD1775] + C[C@@H]1COCCN1C2=NC(=NC(=C2)C3(CC3)[S@](=N)(=O)C)C4=C5C=CNC5=NC=C4 [AZD6738] (first compound max 1 µM, partner max 10 µM)	0.0987	0.0199	-0.0198	-0.0843	0.0273	0.0583	-0.025	-0.0234	0.0642	-0.0425	0.0431	0.0369	0.848	0.756	0.952	0.439	0.806	0.816
CN(C)CCCOc1ccc(-c2ccc3ncc4c(c3c2)n(C2CCOCC2)c(=O)n4C)cn1 [AZD0156] + CCN(CCO)CCCOc1ccc2c(Nc3cc(CC(=O)Nc4cccc(F)c4)[nH]n3)ncnc2c1 [AZD2811] (first compound max 1 µM, 7x7, partner max 1 µM)	0.0032	-0.0331	-0.0219	-0.0504	-0.0296	-0.0431	-0.0082	-0.0448	-0.0736	-0.014	0.0298	-0.0476	0.155	0.422	0.808	0.136	0.253	0.332
Cc1cc2ncnn2cc1Nc1ncc2c(n1)n(C1CCOCC1)c(=O)n2C [AZD7648] + CN(C)CCCOc1ccc(-c2ccc3ncc4c(c3c2)n(C2CCOCC2)c(=O)n4C)cn1 [AZD0156] (first compound max 10 µM, 7x7, partner max 1 µM)	0.0116	0.0151	-0.0268	-0.0396	-0.0152	0.0572	0.0303	0.0083	-0.0055	-0.0144	-0.0224	0.0122	0.332	0.532	0.42	0.133	0.477	0.211
COc1cccc(OCCCN)c1-c1cc(Nc2cnc(C#N)cn2)n[nH]1 [Prexasertib] + CN(C)CCCOc1ccc(-c2ccc3ncc4c(c3c2)n(C2CCOCC2)c(=O)n4C)cn1 [AZD0156] (first compound max 1 µM, 7x7, partner max 1 µM)	0.0014	-0.0676	0.021	-0.0264	-0.021	-0.0129	-0.0194	0.011	-0.022	-0.0159	-0.0009	-0.0075	0.565	0.365	0.978	0.343	0.706	0.818
COc1cccc(OCCCN)c1-c1cc(Nc2cnc(C#N)cn2)n[nH]1 [Prexasertib] + O=C(c1cc(Cc2n[nH]c(=O)c3ccccc23)ccc1F)N1CCN(C(=O)C2CC2)CC1 [Olaparib] (first compound max 1 µM, 7x7, partner max 10 µM)	0.027	0.0169	-0.0677	-0.0445	-0.0795	-0.0891	-0.113	-0.126	0.0018	-0.0181	-0.0658	-0.0955	0.694	0.61	0.982	0.295	0.668	0.7
COc1cc2c(cc1OCCCCCOc1cc3c(cc1OC)C(=O)N1C=C(C)C[C@H]1C=N3)N=C[C@@H]1CC(C)=CN1C2=O [SG3199] + O=C(c1cc(Cc2n[nH]c(=O)c3ccccc23)ccc1F)N1CCN(C(=O)C2CC2)CC1 [Olaparib] (first compound max 0.001 µM, 7x7, partner max 10 µM)	-0.0232	0.0535	-0.0629	-0.0812	-0.0368	-0.041	-0.0474	-0.0014	-0.0502	-0.0352	-0.0038	-0.042	0.0979	0.183	0.528	0.107	0.125	0.122
Cc1cc2ncnn2cc1Nc1ncc2c(n1)n(C1CCOCC1)c(=O)n2C [AZD7648] + O=C(c1cc(Cc2n[nH]c(=O)c3ccccc23)ccc1F)N1CCN(C(=O)C2CC2)CC1 [Olaparib] (first compound max 10 µM, 7x7, partner max 10 µM)	0.0057	-0.0062	-0.0427	-0.0759	-0.0356	-0.0499	-0.0291	-0.0342	-0.0467	-0.0438	-0.0447	-0.0443	0.321	0.537	0.442	0.257	0.301	0.186
CCN(CCO)CCCOc1ccc2c(Nc3cc(CC(=O)Nc4cccc(F)c4)[nH]n3)ncnc2c1 [AZD2811] + O=C(c1cc(Cc2n[nH]c(=O)c3ccccc23)ccc1F)N1CCN(C(=O)C2CC2)CC1 [Olaparib] (first compound max 1 µM, 7x7, partner max 10 µM)	0.0118	-0.0212	-0.0534	-0.0353	0.0118	0.0376	0.0598	-0.0063	-0.0413	-0.0188	0.0524	-0.0949	0.249	0.515	0.854	0.0855	0.293	0.379
Cc1cc2ncnn2cc1Nc1ncc2c(n1)n(C1CCOCC1)c(=O)n2C [AZD7648] + CCN(CCO)CCCOc1ccc2c(Nc3cc(CC(=O)Nc4cccc(F)c4)[nH]n3)ncnc2c1 [AZD2811] (first compound max 10 µM, 7x7, partner max 1 µM)	0.0309	-0.025	-0.0154	-0.0452	-0.0244	0.0419	0.0415	-0.0182	-0.0108	0.0414	0.0666	-0.0267	0.324	0.658	0.839	0.116	0.44	0.369
